Measurements: patent US20110089073A1, “Methods And Compositions For Hydrophobic Modification Of Oral Cavity Surfaces” (The Procter & Gamble Company, priority 2009, published 2011)

Tests used:
[1] = Water contact angle method on treated enamel chips; design: species or system bovine
Description: A water contact angle method is used to determine the degree of hydrophobicity imparted by the present compositions to tooth surfaces. […] The method uses polished bovine enamel chips that are cleaned using a prophy paste followed by an acetone wipe and water rinse in a sonicator. Chips are then allowed to air dry for 60-90 minutes, and then baseline water contact angles are measured using prop Shape Analysis System DSA 10-MK2 from KRUSS. Chips with baseline water contact angle of about 48.00±5.00 are selected and randomized into groups of three per treatment. Following randomization each group of three chips are treated with a solution or dentifrice slurry (1:3 ratio) containing the test ingredient followed by a water rinse. The chips are then soaked in human saliva for an hour at 37° C. After the saliva soak, the chips are removed, rinsed with water and air dried. Contact angle reading is taken after at least 2 hours of drying. Water or regular toothpaste (without organophosphate) are used as controls. […] An increase in contact angle (post-treatment value—baseline) represents increased hydrophobic character of the surface; a decrease represents increased hydrophilic character of the surface.

[2] = Dissolution of pretreated hydroxy apatite powder in acetate buffer pH 4.5
Description: In this protocol, HAP powder is pretreated with dentifrice slurry supernatant (20 g supernate/200 mg HAP powder) followed by three times washing with water. After the last wash, 2 ml of water is added and vortexed to form a uniform slurry. In a separate beaker, 25 ml of 0.1M acetate buffer is prepared and pH adjusted to 4.5. To this buffer solution having initial pH of 4.5, a sample of 0.5 ml of pre-treated HAP slurry is added and dissolution profile of the pretreated HAP powder is monitored via changes in pH of the acetate buffer solution. The pH change is measured and recorded using a Brinkman Titrino titrator device for 30 minutes. With HAP dissolution, pH increases and the pH change is compared to that of a plain water treated HAP as control and is used to calculate percent inhibition of HAP mineral loss.

[3] = In vitro erosion cycling protocol (citric acid challenge, TMR); design: species or system human; conditions: teeth treated with compositions containing the organophosphate
[4] = Table 1, change from baseline after treatment, 1 h saliva soak, concentrations as in label
[5] = Table 3, with or without water soluble hydrophilic compound
[6] = Table 1, vs water treated HAP, concentrations as in label

Molecule | Δ Water Contact Angle [1, 4] | % Inhibition of HAP Surface Loss [2, 6] [%] | Tooth mineral surface loss from acid exposure [3] | further results
Sodium Dodeceth-1 Phosphate [1% Sodium Dodeceth-1 Phosphate] | 32.13 | 94.5 | significantly less tooth mineral surface loss | Δ Water Contact Angle ([1]; Table 2, concentration 0.25%): 19.07; Δ Water Contact Angle ([1]; Table 2, concentration 0.5%): 26.57; Δ Water Contact Angle ([1]; Table 2, concentration 1.0%): 43.77; Δ Water Contact Angle ([1]; Table 2, concentration 2.0%): 61.40; Δ Water Contact Angle [1, 5]: 32.13; % Inhibition of HAP Surface Loss ([2]; Table 2, concentration 0.25%): 58.56%; % Inhibition of HAP Surface Loss ([2]; Table 2, concentration 0.5%): 75.69%; % Inhibition of HAP Surface Loss ([2]; Table 2, concentration 1.0%): 92.03%; % Inhibition of HAP Surface Loss ([2]; Table 2, concentration 2.0%): 92.83%; % Inhibition of HAP Surface Loss [2, 5]: 94.49%
CCCCCCCCCCCCOS(=O)(=O)[O-].[Na+] [1% SLS, sodium lauryl sulfate, reference compound] | 0.23 | – | – | –
CCCCCCCCCCCCOP(=O)([O-])[O-].[Na+].[Na+] [Sodium dodecyl phosphate] | – | – | significantly less tooth mineral surface loss | –
Potassium Laureth-3 Phosphate [1% Potassium Laureth-3 Phosphate] | 23.2 | 94.8 | – | –
Potassium Laureth Phosphate [1% Potassium Laureth Phosphate] | 45.43 | 89.7 | – | –
Sodium Dodeceth-9 Phosphate [1% Sodium Dodeceth-9 Phosphate] | 16.43 | 45.24 | significantly less tooth mineral surface loss | –
